Measurements: patent publication US20110173718A1, “HERBICIDE TOLERANT PLANTS” (SYNGENTA CROP PROTECTION, INC., priority 2008, published 2011)
Where two headings read alike, the source gives them in different places. Marks after values point to notes of the source that are not given here.

Assays:
Chlamydomonas HST = molecular target: T1, Chlamydomonas HST (Chlamydomonas reinhardtii, UniProt A1JHN0); assay: HST assay (TLC, MFBQ formed), recombinant Chlamydomonas HST in E. coli membranes; assay type: biochemical; conditions: TLC, estimated amount of MFBQ formed, relative to controls
T1 construct: GST (N); made in house; host or cells: E. coli (BL21A1 / BL21DE3), membrane fraction
T1 sequence (A1JHN0 51-370): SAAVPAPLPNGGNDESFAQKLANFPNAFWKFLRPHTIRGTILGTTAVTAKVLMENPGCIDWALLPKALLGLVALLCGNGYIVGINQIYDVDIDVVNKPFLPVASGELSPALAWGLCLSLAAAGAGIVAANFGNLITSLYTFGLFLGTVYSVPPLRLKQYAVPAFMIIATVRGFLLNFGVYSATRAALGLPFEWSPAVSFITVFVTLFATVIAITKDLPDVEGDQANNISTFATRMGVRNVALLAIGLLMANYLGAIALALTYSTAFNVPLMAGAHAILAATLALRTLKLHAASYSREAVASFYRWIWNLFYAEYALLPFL
Method: Alternatively, Arabidopsis and Chlamydomonas mature HST coding sequences are cloned as GST N-terminal fusion enzymes and expressed in E. coli.
E. coli. BL21A1 cells expressing mature Arabidopsis or Chlamydonionas HST as a GST N-terminal fusion proteins are grown, harvested, broken and membrane fractions expressing HST produced.
For example, 1 ng of recombinant DNA is used to transform BL21DE3 cells to obtain a plateful of individual colonies. One of these colonies is picked and used to inoculate an overnight culture of 100 ml of Luria Broth (LB) supplemented with 50 ug/ml of kanamycin at final concentration, grown at 37° C. with shaking at 220 rpm. Next morning, 10 mls of the overnight culture is used to inoculate 11 of fresh sterile LB supplemented with 50 ug/ml of kanamycin at final concentration, grown at 37° C. with shaking at 220 rpm until the OD reached 0.6 at 600 nm, induced with the addition of 0.1 mM IPTG and left to induce at 15° C. overnight. The cells are harvested by centrifugation at 4600 rpm for 10 min at 4° C. and the pellet stored at −80° C. […] E. coli cell pellet is then resuspended in 25 ml of 50 mM Tris, pH 7.5 supplemented with Roche EDTA-free protease inhibitor tablet (one tablet in 200 mls of buffer). 10 ml of cells are lysed by sonication on ice. The resultant lysed cells are centrifuged at 3000 g for 10 min to pellet the cell nuclei/debris etc. 10 mls of supernatant is aspirated and centrifuged at 150,000 g for 60 min at 4° C. The pellet containing the membranes is resuspended in 2 ml of the above buffer. These samples are stored as 100 ul aliquots at −80° C., after being diluted with addition of glycerol to 50% v/v.
Prenyltransferase (HST) activities are measured by determining the prenylation rates of [U—^14C]homogentisate using farnesyl diphosphate (FDP) as prenyl donor. ^14C homogentisate is prepared from ^14C tyrosine using L amino acid oxidase and HPPD. For inhibitor testing, compounds are dissolved in dimethylsulfoxide (DMSO). DMSO added at up to 2% v/v has no effect on assays. Control assays contain DMSO at the same concentration as in inhibitor containing assays.
The recombinant Chlamydomonas HST expressed in E. coli membranes is assayed in standard reaction mixtures with 200 μM FDP and 100 μM ^14C-homogentisate (40 dpm/pmol) in 50 mM Tricine-NaOH pH 8.5, 20 mM MgCl2. Assays are started with the addition of enzyme and run for ˜20 min at 28° C.
Recombinant Arabidopsis and Rice HSTs are expressed in insect cells. Assays are run as for Chlamydomonas HST except that assay temperature is 27° C. Assays are stopped with 300 ul of solvent mix (1:2, Chloroform:Methanol) and 100 ul of 0.5% NaCl, agitated/mixed and spun at 13,000 rpm in a benchtop eppendorf centrifuge for 5 minutes. 80 ul of the lower phase extract is loaded onto a TLC plate (silica Gel 60, 20 cm×20 cm) FLA3000 system and run for 35 minutes in dichloromethane. The radioactivity is quantified using a Fuji Phosphoimager and band intensity integrated as quantitative measure of product amount. The bands corresponding to oxidised and reduced 2-methyl-6-farnesyl-1,4-benzoquinol (MFBQ) are identified and the total of the two (oxidised and reduced) band intensities is calculated in order to estimate the total amount of MFBQ product formation. Specific activities of 8 pmol MFBQ min^−1 mg^−1 protein (23 pmol) and 7 pmol MFBQ min^−1 mg^−1 protein (14 pmol) are, for example, estimated for the GST-fusion truncated Arabidopsis HST gene (SEQ ID # 3) expressed in membranes from insect cells 4 days and 5 days after transfection respectively. Similar results are noted from past literature on E. coli expressed Arabidopsis HST. Activity from the insect cell expressed GST-fusion truncated rice HST (SEQ ID# 4) is similar. Expression of the non-truncated HST coding sequences as GST fusions also gives HST activity. […]

Arabidopsis HST = molecular target: T2, Arabidopsis HST (Arabidopsis thaliana, UniProt Q1ACB3); assay: HST total extraction (non TLC) assay, recombinant Arabidopsis HST from insect cells; assay type: biochemical
T2 construct: GST (factor Xa cleavage site) (N); made in house; host or cells: Sf9 insect cells (baculovirus, pAcG3X), membrane fraction
T2 sequence (Q1ACB3 70-386): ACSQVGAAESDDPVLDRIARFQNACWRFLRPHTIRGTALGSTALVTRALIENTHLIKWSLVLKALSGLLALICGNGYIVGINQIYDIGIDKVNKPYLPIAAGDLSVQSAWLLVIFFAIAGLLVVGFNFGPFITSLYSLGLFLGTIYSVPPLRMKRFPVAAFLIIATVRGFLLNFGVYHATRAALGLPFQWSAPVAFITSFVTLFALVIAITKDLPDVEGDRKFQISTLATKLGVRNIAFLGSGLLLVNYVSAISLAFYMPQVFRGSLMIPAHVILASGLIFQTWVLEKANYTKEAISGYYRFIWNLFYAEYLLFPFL

weeds [1] = assay: Glasshouse weed control, HST inhibitors alone and with A22, pre-emergence; assay type: in vivo; conditions: 336 h, 14 DAT; for pest or weed control at 15.625 g/ha: HST inhibitor rate 15.625 g/ha; for pest or weed control at 62.5 g/ha: HST inhibitor rate 62.5 g/ha; for pest or weed control at 250 g/ha: HST inhibitor rate 250 g/ha
Procedure, shortened: (§1)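 Weeds grown in glasshouse trays (24-27 C day, 18-21 C night, ~15 h photoperiod) and track-sprayed in 0.2% X77 at […], pre-emergence or post-emergence at about 7-12 d. HPPD inhibitor A22 applied at 2 g/ha alone or mixed with HST herbicides. Damage scored 0–100% at 14 DAT; synergy calculated by Colby formula.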

weeds [2] = assay: Glasshouse weed control, HST inhibitors alone and with A22, post-emergence; assay type: in vivo; conditions: 336 h, 14 DAT, single replicate, read-out: % control score, Obs; for pest or weed control at 15.625 g/ha: 15.625 g/ha alone; for pest or weed control at 62.5 g/ha: 62.5 g/ha alone; for pest or weed control at 250 g/ha: 250 g/ha alone
Procedure, shortened: as §1

[3] = 3 point dose curves only conducted at 50 μM HPP
[4] = BRAPL, read-out: BRAPL Obs, % control score
[5] = PANMI, read-out: PANMI Obs, % control score
[6] = SIDSP, read-out: SIDSP Obs, % control score
[7] = Digitaria sanguinalis, DIGSA, read-out: DIGSA Obs, % control score
[8] = Echinochloa crus-galli, ECHCG, read-out: ECHCG Obs, % control score
[9] = Setaria faberi, SETFA, read-out: SETFA Obs, % control score

Cn1c(=O)c(-c2c(F)ccc(Br)c2Cl)c(O)c2nccnc21 [Compound 2.5]
Chlamydomonas. HST % I at 10 ppm (Chlamydomonas HST): 70% | Chlamydomonas. HST % I at 100 ppm (Chlamydomonas HST): 90% | Estimated IC50 (ppm) (Arabidopsis HST; [3]): 48* ppm

Cn1c(=O)c(-c2c(F)ccc(F)c2Cl)c(O)c2nccnc21 [Compound 2.4]
Chlamydomonas. HST % I at 10 ppm (Chlamydomonas HST): 5% | Chlamydomonas. HST % I at 100 ppm (Chlamydomonas HST): 45% | Estimated IC50 (ppm) (Arabidopsis HST; [3]): 211* ppm

O=c1c(-c2c(Cl)cccc2C(F)(F)F)c(O)c2nccnc2n1CC(F)F [Compound 2.20]
pest or weed control at 15.625 g/ha (weeds [1]; [4]): 0% | pest or weed control at 62.5 g/ha (weeds [1]; [4]): 10% | pest or weed control at 250 g/ha (weeds [1]; [4]): 60% | pest or weed control at 15.625 g/ha (weeds [1]; [5]): 0% | pest or weed control at 62.5 g/ha (weeds [1]; [5]): 2% | pest or weed control at 250 g/ha (weeds [1]; [5]): 30% | pest or weed control at 15.625 g/ha (weeds [1]; [6]): 0% | pest or weed control at 62.5 g/ha (weeds [1]; [6]): 0% | pest or weed control at 250 g/ha (weeds [1]; [6]): 5% | pest or weed control at 15.625 g/ha (weeds [1]; [7]): 0% | pest or weed control at 62.5 g/ha (weeds [1]; [7]): 0% | pest or weed control at 250 g/ha (weeds [1]; [7]): 20% | pest or weed control at 15.625 g/ha (weeds [1]; [8]): 1% | pest or weed control at 62.5 g/ha (weeds [1]; [8]): 15% | pest or weed control at 250 g/ha (weeds [1]; [8]): 90% | pest or weed control at 15.625 g/ha (weeds [1]; [9]): 0% | pest or weed control at 62.5 g/ha (weeds [1]; [9]): 20% | pest or weed control at 250 g/ha (weeds [1]; [9]): 65% | pest or weed control at 15.625 g/ha (weeds [2]; BRAPL): 30% | pest or weed control at 62.5 g/ha (weeds [2]; BRAPL): 50% | pest or weed control at 250 g/ha (weeds [2]; BRAPL): 95% | pest or weed control at 15.625 g/ha (weeds [2]; PANMI): 15% | pest or weed control at 62.5 g/ha (weeds [2]; PANMI): 45% | pest or weed control at 250 g/ha (weeds [2]; PANMI): 85% | pest or weed control at 15.625 g/ha (weeds [2]; SIDSP): 10% | pest or weed control at 62.5 g/ha (weeds [2]; SIDSP): 50% | pest or weed control at 250 g/ha (weeds [2]; SIDSP): 55% | pest or weed control at 15.625 g/ha (weeds [2]; Digitaria sanguinalis, DIGSA): 20% | pest or weed control at 62.5 g/ha (weeds [2]; Digitaria sanguinalis, DIGSA): 60% | pest or weed control at 250 g/ha (weeds [2]; Digitaria sanguinalis, DIGSA): 80% | pest or weed control at 15.625 g/ha (weeds [2]; Echinochloa crus-galli, ECHCG): 20% | pest or weed control at 62.5 g/ha (weeds [2]; Echinochloa crus-galli, ECHCG): 60% | pest or weed control at 250 g/ha (weeds [2]; Echinochloa crus-galli, ECHCG): 90% | pest or weed control at 15.625 g/ha (weeds [2]; Setaria faberi, SETFA): 25% | pest or weed control at 62.5 g/ha (weeds [2]; Setaria faberi, SETFA): 65% | pest or weed control at 250 g/ha (weeds [2]; Setaria faberi, SETFA): 80% | Estimated IC50 (ppm) (Arabidopsis HST): 16 ppm
